Experimental findings from patent US12371454B2, “Cyclic peptide compound having Kras inhibitory action” (priority 2019, dated 2025) are described below.

SMILES strings stand for the structures. Positions of bridges follow the written chain, without caps; N, C: chain ends. Non-standard residues stand in square brackets, D forms with d. Residues, ends and D or L forms follow the SMILES beside them. *: point of attachment. hPhe(3-Cl-4-CF3) = N[C@@H](CCc1ccc(C(F)(F)F)c(Cl)c1)C(=O)O; hPhe(3-F,4-CF3) = N[C@@H](CCc1ccc(C(F)(F)F)c(F)c1)C(=O)O; NMePhe(4-CF3) = CN[C@@H](Cc1ccc(C(F)(F)F)cc1)C(=O)O; hPhe(4-CF3) = N[C@@H](CCc1ccc(C(F)(F)F)cc1)C(=O)O; NMeAla(4-thiazolyl) = CN[C@@H](Cc1cscn1)C(=O)O; NMePhe(3-CN) = CN[C@@H](Cc1cccc(C#N)c1)C(=O)O; NMeAbu(4,4,4-F3) = CN[C@@H](CC(F)(F)F)C(=O)O; NMePhe(4-Cl) = CN[C@@H](Cc1ccc(Cl)cc1)C(=O)O; NMePhe(4-Me) = CN[C@@H](Cc1ccc(C)cc1)C(=O)O; NMePhe(2-F) = CN[C@@H](Cc1ccccc1F)C(=O)O; NMeGly(cPent) = CN[C@H](C(=O)O)C1CCCC1; NMeCha = CN[C@@H](CC1CCCCC1)C(=O)O; NMeChg = CN[C@H](C(=O)O)C1CCCCC1; NMeF = CN[C@@H](Cc1ccccc1)C(=O)O; NMeI = CC[C@H](C)[C@H](NC)C(=O)O; N(CH2CH2)2CF2 = FC1(F)CCN(*)CC1; Cha = N[C@@H](CC1CCCCC1)C(=O)O; NMeD = CN[C@@H](CC(=O)O)C(=O)O; NMeL = CN[C@@H](CC(C)C)C(=O)O; NMeV = CN[C@H](C(=O)O)C(C)C; d(β3hA) = C[C@@H](N)CC(=O)O; NMeS = CN[C@@H](CO)C(=O)O; Morpholide = C1CN(*)CCO1; NMeA = CN[C@@H](C)C(=O)O; Piperidide = C1CCN(*)CC1; Pyrrolidide = C1CCN(*)C1; dNMeA = CN[C@H](C)C(=O)O; Ac5c = NC1(C(=O)O)CCCC1; Aze = O=C(O)[C@@H]1CCN1; βAla = NCCC(=O)O; Sar = CNCC(=O)O; Propyl = CCC*

T1 sequence (P01116 1-188 isoform P01116-2 G12D): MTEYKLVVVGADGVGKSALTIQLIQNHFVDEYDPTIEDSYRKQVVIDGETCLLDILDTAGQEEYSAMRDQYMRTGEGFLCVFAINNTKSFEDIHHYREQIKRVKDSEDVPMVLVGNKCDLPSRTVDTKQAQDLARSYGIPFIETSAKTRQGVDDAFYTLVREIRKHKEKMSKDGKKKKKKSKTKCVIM

This test addresses T1, Kras and SOS1 (biotin-tagged human Kras loaded with GDP, His-tagged human SOS1) (Homo sapiens, UniProt P01116, G12D).
T1 construct: made in house; host or cells: E. coli (stated for Kras only)
The test can be described thus: Protein-protein interaction inhibition between Kras and SOS1 (KrasGl2D-SOS PPI) using AlphaScreen. As to conditions: AlphaScreen; biotin-tagged human Kras loaded with GDP, His-tagged human SOS1; read-out: KRAS G12D-SOS PPI IC50. The class given is binding. In outline: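 Donor beads (nickel) hold His-SOS1; acceptor beads (streptavidin) hold biotin-Kras bound to GDP. Signal measured at 520-620 nm following 680 nm excitation.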
(In general: In Alpha technology, singlet oxygen from a donor bead excites a nearby acceptor bead.)
Usually IC50 stands for the point on the concentration scale where inhibition reaches its midpoint. Regarding `CC[C@H](C)[C@@H]1NC(=O)[C@H](CC(C)C)N(C)C(=O)C[C@@H](C)NC(=O)[C@H](C(C)C)N(C)C(=O)C2(CCCC2)NC(=O)[C@@H]2CCCN2C(=O)[C@H](CCc2ccc(C(F)(F)F)c(Cl)c2)NC(=O)CN(C)C(=O)[C@H](Cc2cccc(C#N)c2)N(C)C(=O)CN(C)C(=O)CN(C)C1=O` [Compound 975] (cyclo([Ac5c][NMeV][d(β3hA)][NMeL]I[Sar][Sar][NMePhe(3-CN)][Sar][hPhe(3-Cl-4-CF3)]P)), the IC50 was found to be 22 nM.

Turning to `CC[C@H](C)[C@@H]1NC(=O)[C@H](CC(C)C)N(C)C(=O)CCNC(=O)[C@H](C(C)C)N(C)C(=O)C2(CCCC2)NC(=O)[C@@H]2CCCN2C(=O)[C@H](CCc2ccc(C(F)(F)F)c(Cl)c2)NC(=O)CN(C)C(=O)[C@H](CC2CCCCC2)N(C)C(=O)CN(C)C(=O)CN(C)C1=O` [Compound 979] (cyclo([Ac5c][NMeV][βAla][NMeL]I[Sar][Sar][NMeCha][Sar][hPhe(3-Cl-4-CF3)]P)), the IC50 amounted to 37 nM.

As to `CC[C@H](C)[C@@H]1NC(=O)[C@H](CC(F)(F)F)N(C)C(=O)C[C@@H](C(=O)N2CCOCC2)N(C)C(=O)[C@H](C2CCCCC2)N(C)C(=O)C2(CCCC2)NC(=O)[C@@H]2CCCN2C(=O)[C@H](CCc2ccc(C(F)(F)F)c(Cl)c2)NC(=O)CN(C)C(=O)[C@H](Cc2ccc(C(F)(F)F)cc2)N(C)C(=O)CN(C)C(=O)CN(C)C1=O` [Compound 981] ([NMeAbu(4,4,4-F3)]I[Sar][Sar][NMePhe(4-CF3)][Sar][hPhe(3-Cl-4-CF3)]P[Ac5c][NMeChg][NMeD]-Morpholide; lactam N-11), the concentration for half-maximal inhibition (IC50) came out at 0.37 nM.

As for `CC[C@H](C)[C@@H]1NC(=O)[C@H](CC(C)C)N(C)C(=O)C[C@@H](C(=O)N(C)C)N(C)C(=O)[C@H]([C@@H](C)CC)N(C)C(=O)[C@H](C(C)C)NC(=O)[C@H](Cc2cscn2)N(C)C(=O)[C@H](CCc2ccc(C(F)(F)F)c(Cl)c2)NC(=O)CN(C)C(=O)[C@H](Cc2ccc(C)cc2)N(C)C(=O)[C@@H]2CCN2C(=O)[C@H](C)N(C)C1=O` [Compound 982] ([NMeL]I[NMeA][Aze][NMePhe(4-Me)][Sar][hPhe(3-Cl-4-CF3)][NMeAla(4-thiazolyl)]V[NMeI][NMeD]-NMe2; lactam N-11), the 50% inhibitory concentration (IC50) was determined as 48 nM.

In the case of `CC[C@H](C)[C@@H]1NC(=O)[C@H](CC(C)C)N(C)C(=O)C[C@@H](C(=O)N2CCCCC2)N(C)C(=O)[C@H](C2CCCC2)N(C)C(=O)C2(CCCC2)NC(=O)[C@H](CC(=O)N2CCC(F)(F)CC2)N(C)C(=O)[C@H](CCc2ccc(C(F)(F)F)c(Cl)c2)NC(=O)CN(C)C(=O)[C@H](CC2CCCCC2)N(C)C(=O)[C@@H]2CCN2C(=O)[C@H](C)N(C)C1=O` [Compound 984] ([NMeL]I[NMeA][Aze][NMeCha][Sar][hPhe(3-Cl-4-CF3)][NMeD](N(CH2CH2)2CF2)[Ac5c][NMeGly(cPent)][NMeD]-Piperidide; lactam N-11), the IC50 was 25 nM.

For `CC(C)C[C@H]1C(=O)N[C@@H](CC2CCCCC2)C(=O)N(C)CC(=O)N(C)CC(=O)N(C)[C@@H](CC2CCCCC2)C(=O)N(C)CC(=O)N[C@@H](CCc2ccc(C(F)(F)F)c(Cl)c2)C(=O)N2CCC[C@H]2C(=O)NC2(CCCC2)C(=O)N(C)[C@@H](C(C)C)C(=O)N(C)[C@H](C(=O)N2CCCCC2)CC(=O)N1C` [Compound 986] ([NMeL][Cha][Sar][Sar][NMeCha][Sar][hPhe(3-Cl-4-CF3)]P[Ac5c][NMeV][NMeD]-Piperidide; lactam N-11), the half-inhibitory concentration (IC50) stood at 25 nM.

As for `CCCOC[C@H]1C(=O)N(C)CC(=O)N[C@@H](CCc2ccc(C(F)(F)F)c(F)c2)C(=O)N2CCC[C@H]2C(=O)NC2(CCCC2)C(=O)N(C)[C@@H](C2CCCC2)C(=O)N(C)[C@H](C(=O)N2CCCC2)CC(=O)N(C)[C@@H](CC(C)C)C(=O)N[C@@H]([C@@H](C)CC)C(=O)N(C)[C@@H](C)C(=O)N2CC[C@H]2C(=O)N1C` [Compound 987] ([NMeL]I[NMeA][Aze][NMeS](Propyl)[Sar][hPhe(3-F,4-CF3)]P[Ac5c][NMeGly(cPent)][NMeD]-Pyrrolidide; lactam N-11), the half-inhibitory concentration (IC50) came to 0.96 nM.

As for `CC[C@H](C)[C@@H]1NC(=O)[C@H](C)NC(=O)C[C@@H](C(=O)N2CCCC2)NC(=O)[C@H](CC(C)C)N(C)C(=O)[C@H](Cc2ccccc2)N(C)C(=O)[C@H](CC(C)C)NC(=O)[C@H](CCc2ccc(C(F)(F)F)cc2)NC(=O)CN(C)C(=O)[C@H](Cc2ccc(Cl)cc2)N(C)C(=O)CN(C)C(=O)CN(C)C1=O` [Compound 989] (AI[Sar][Sar][NMePhe(4-Cl)][Sar][hPhe(4-CF3)]L[NMeF][NMeL]D-Pyrrolidide; lactam N-11), the IC50 worked out at 34 nM.

Take `CC[C@H](C)[C@@H]1NC(=O)[C@H](C)N(C)C(=O)C[C@@H](C)NC(=O)[C@H](C2CCCC2)N(C)C(=O)C2(CCCC2)NC(=O)[C@@H]2CCCN2C(=O)[C@H](CCc2ccc(C(F)(F)F)c(Cl)c2)NC(=O)[C@@H](C)N(C)C(=O)[C@H](Cc2ccccc2F)N(C)C(=O)[C@@H]2CCN2C(=O)[C@H](C)N(C)C1=O` [Compound 990] (cyclo([Ac5c][NMeGly(cPent)][d(β3hA)][NMeA]I[NMeA][Aze][NMePhe(2-F)][dNMeA][hPhe(3-Cl-4-CF3)]P)): the half-inhibitory concentration (IC50) was 83 nM.
